Structures can show the parent of a compound that is named as a salt. Where two headings read alike, the source gives them in different places.
What was measured:
rat = test: Rat tail flick assay (tail flick latency in response to heat); assay type: in vivo; conditions: read-out: % MPE (Maximum Possible Effect), tail flick
Description: The Tail Flick Assay, based upon the methods of D'Amour & Smith (J. Pharmacol. Exp. Therap., 72: 74-79, 1941), is used to measure loss of pain sensation in the rat tail, allowing the experimenter to screen drugs for analgesic effect. Since then, the method has been used in a number of publications. For example, it was used to evaluate the analgesic effect of O-alkyl derivatives of tramadol by Liming Shao and Michael Hewitt etc. (Boiorganic & Medicinal Chemistry Letters, 18:1674-1680, 2008).
A Tail Flick Unit is used to measure tail flick latency in response to heat. The unit consists of an infrared (I.R.) source (50 W bulb) with adjustable intensity that is focused through a flush mounted window on the upper panel of the unit and onto the rat tail. Once I.R. source is focused on the rat tail and turned on, a timer starts. When the thermal threshold for pain is reached and the rat flicks its tail, the I.R source automatically shuts off and the timer stop, displaying the latency time.
On the day of experiment, the animals are tested to determine baseline latency. Each rat is given one test to determine latency to tail flick with a cut off 10 seconds. Baselines are recorded and those animals with a baseline latency of 2-5 seconds are used in the experiment. Animals are divided into several groups according to the baseline latency. The Tail-flick latencies are measured at different timepoints for up to 180 minutes after administration of vehicle or test articles. If treatment group continues to display pain control after 180 minutes, additional measurements are taken every 60 minutes until pain control is no longer observed.
I.R. Source is set at 40 units (determined to elicit tail flick response in desired 2-5 seconds in naïve animals).
Test articles or vehicle are administered by intravenous (IV) injection through the tail vein or by oral gavage at time 0. Animals are gently restrained and held on top of a tail flick unit. The tail is then wiped clean with a cotton square and placed over the I.R. source so that the beam is focused at approximately midway the length of the tail. After the rat is in position, the I.R. source is turned on. When the thermal threshold for pain is reached, the rat flicked its tail and the I.R. source automatically shuts off. Latency time (in seconds) is then recorded.
Data are recorded and graphed as % MPE (Maximum Possible Effect). % MPE is calculated using the following formula: % MPE=[(Test latency−Baseline latency)/(Cut off latency(10 sec.'s)−Baseline latency)]*100
Compounds were administered by the IV route in 20% 2-hydroxypropyl-beta-cyclodextrin (20% HP-β-CD). The dose levels of test article were 2.5, 5, or 20 mg/kg. Examples 2, 3, 13, 40, 77, 78, 114, and Tramadol provided at least 50% MPE at 20 mg/kg. Compounds 5, 8, 17, 105, 107, 148, 158, and 159 provided at least 50% MPE at 5 mg/kg. Compounds 82, 84, and 116 provided at least 50% MPE at 2.5 mg/kg.
Compounds were administered by oral gavage in 0.5% methylcellulose at 20 or 30 mg/kg. Examples 2, 3, 13, 115, and Tramadol provided at least 50% MPE at 30 mg/kg. Compounds 5, 39, 65, 106, and 115 provided at least 50% MPE at 20 mg/kg.

Unspecified bioassay(s) = conditions: comparison of the two enantiomers of Example 181
[1] = oral gavage in 0.5% methylcellulose

`COc1cccc([C@@]2(O)C[C@H]3CCC(C3)[C@@H]2CN(C)C)c1` (stereo in doubt) [Example 2, 2-dimethylaminomethyl-3-(3-methoxy-phenyl)-bicyclo[3.2.1]octan-3-ol] showed an inhibition in vivo at 20 mg/kg (rat; IV in 20% HP-β-CD) of no less than 50% and an inhibition in vivo at 30 mg/kg (rat; [1]) of no less than 50%.

Work on `COc1cc(F)cc([C@@]2(O)C[C@H]3CC[C@H](C3)[C@@H]2CN(C)C)c1` (stereo in doubt) [Example 3, 2-Dimethylaminomethyl-3-(3-fluoro-5-methoxy-phenyl)-bicyclo[3.2.1]octan-3-ol] yielded an inhibition in vivo at 20 mg/kg (rat; IV in 20% HP-β-CD) of no less than 50% and an inhibition in vivo at 30 mg/kg (rat; [1]) of no less than 50%.

In the case of `COc1ccc(F)c([C@@]2(O)C[C@H]3CC[C@H](C3)[C@@H]2CN(C)C)c1` (stereo in doubt) [Example 5, 2-Dimethylaminomethyl-3-(2-fluoro-5-methoxy-phenyl)-bicyclo[3.2.1]octan-3-ol], the inhibition in vivo at 20 mg/kg (rat; [1]) is reported as no less than 50%.

`COc1cc(C)cc([C@@]2(O)C[C@H]3CC[C@H](C3)[C@@H]2CN(C)C)c1` (stereo in doubt) [Example 8, 2-Dimethylaminomethyl-3-(3-methoxy-5-methyl-phenyl)-bicyclo[3.2.1]octan-3-ol] showed an inhibition in vivo at 5 mg/kg (rat; IV in 20% HP-β-CD) of no less than 50%.

`CN(C)C[C@H]1[C@@H]2CC[C@@H](C2)C[C@]1(O)c1cccc(O)c1` (stereo in doubt) [Example 13, 2-Dimethylaminomethyl-3-(3-hydroxy-phenyl)-bicyclo[3.2.1]octan-3-ol] showed an inhibition in vivo at 20 mg/kg (rat; IV in 20% HP-β-CD) of no less than 50% and an inhibition in vivo at 30 mg/kg (rat; [1]) of no less than 50%.

Compound `CN(C)C[C@H]1C2CC[C@@H](C2)C[C@]1(O)c1cc(O)ccc1F` (stereo in doubt) [Example 39, 2-dimethylaminomethyl-3-(2-fluoro-5-hydroxy-phenyl)-bicyclo[3.2.1]octan-3-ol] has an inhibition in vivo at 20 mg/kg (rat; [1]) of no less than 50%.

`CN(C)C[C@H]1[C@@H]2CC[C@@H](C2)C[C@]1(O)c1cc(O)cc(F)c1` (stereo in doubt) [Example 40, 2-Dimethylaminomethyl-3-(3-fluoro-5-hydroxy-phenyl)-bicyclo[3.2.1]octan-3-ol] showed an inhibition in vivo at 20 mg/kg (rat; IV in 20% HP-β-CD) of no less than 50%.

With `CN(C)C[C@@H]1C(c2cccc(O)c2)=C[C@@H]2CC[C@H]1C2` (stereo in doubt) [Example 77, 3-(4-dimethylaminomethyl-bicyclo[3.2.1]oct-2-en-3-yl)-phenol] the inhibition in vivo at 20 mg/kg (rat; IV in 20% HP-β-CD) was no less than 50%.

With `COc1cccc(C2=C[C@H]3CC[C@H](C3)[C@@H]2CN(C)C)c1` (stereo in doubt) [Example 78, [3-(3-Methoxy-phenyl)-bicyclo[3.2.1]oct-3-en-2-ylmethyl]-dimethyl-amine] the inhibition in vivo at 20 mg/kg (rat; IV in 20% HP-β-CD) was no less than 50%.

Work on `CN(C)C[C@@H]1C(c2cc(O)cc(F)c2)=C[C@H]2CC[C@@H]1C2` (stereo in doubt) [Example 82, 3-(4-Dimethylaminomethyl-bicyclo[3.2.1]oct-2-en-3-yl)-5-fluoro-phenol] yielded an inhibition in vivo at 2.5 mg/kg (rat; IV in 20% HP-β-CD) of no less than 50%.

Compound `CN(C)C[C@@H]1C(c2cc(O)ccc2F)=C[C@H]2CC[C@@H]1C2` (stereo in doubt) [Example 84, 3-(4-Dimethylaminomethyl-bicyclo[3.2.1]oct-2-en-3-yl)-4-fluoro-phenol] has an inhibition in vivo at 2.5 mg/kg (rat; IV in 20% HP-β-CD) of no less than 50%.

In the case of `CN(C)C[C@@H]1C(c2cccc(OC(=O)C(C)(C)C)c2)=C[C@@H]2CC[C@H]1C2` (stereo in doubt) [Example 105, 2,2-dimethyl-propionic acid 3-(4-dimethylaminomethyl-bicyclo[3.2.1]oct-2-en-3-yl)-phenyl ester], the inhibition in vivo at 5 mg/kg (rat; IV in 20% HP-β-CD) is reported as no less than 50%.

Compound `CN(C)C[C@@H]1C(c2cccc(OC(=O)c3ccccc3)c2)=C[C@H]2CC[C@@H]1C2` (stereo in doubt) [Example 106, Benzoic acid 3-(4-dimethylaminomethyl-bicyclo[3.2.1]oct-2-en-3-yl)-phenyl ester] has an inhibition in vivo at 20 mg/kg (rat; [1]) of no less than 50%.

`CN(C)C[C@H]1[C@H]2CC[C@H](C2)C[C@H]1c1cccc(O)c1` (stereo in doubt) [Example 114, 3-(2-dimethylaminomethyl-bicyclo[3.2.1]oct-3-yl)-phenol] gave an inhibition in vivo at 20 mg/kg (rat; IV in 20% HP-β-CD) of no less than 50%.

Work on `COc1cccc([C@@H]2C[C@H]3CC[C@H](C3)[C@@H]2CN(C)C)c1` (stereo in doubt) [Example 115, [3-(3-methoxy-phenyl)-bicyclo[3.2.1]oct-2-ylmethyl]-dimethyl-amine] yielded an inhibition in vivo at 20 mg/kg (rat; [1]) of no less than 50% and an inhibition in vivo at 30 mg/kg (rat; [1]) of no less than 50%.

Compound `CN(C)C[C@H]1[C@@H]2CC[C@@H](C2)C[C@H]1c1cc(O)cc(F)c1` (stereo in doubt) [Example 116, 3-(2-dimethylaminomethyl-bicyclo[3.2.1]oct-3-yl)-5-fluoro-phenol] has an inhibition in vivo at 2.5 mg/kg (rat; IV in 20% HP-β-CD) of no less than 50%.

For `COc1cccc([C@]2(O)[C@@H](CN(C)C)CC[C@@H]3C[C@@H]32)c1` (stereo in doubt) [Example 148, 3-Dimethylaminomethyl-2-(3-methoxy-phenyl)-bicyclo[4.1.0] heptan-2-ol], the inhibition in vivo at 5 mg/kg (rat; IV in 20% HP-β-CD) was no less than 50%.

`CN(C)C[C@H]1CC[C@@H]2C[C@@H]2[C@]1(O)c1cc(O)ccc1F` (stereo in doubt) [Example 158, 3-Dimethylaminomethyl-2-(2-fluoro-5-hydroxy-phenyl)-bicyclo[4.1.0] heptan-2-ol] gave an inhibition in vivo at 5 mg/kg (rat; IV in 20% HP-β-CD) of no less than 50%.

With `Cc1cc(O)cc([C@]2(O)[C@@H](CN(C)C)CC[C@@H]3C[C@@H]32)c1` (stereo in doubt) [Example 159, 3-Dimethylaminomethyl-2-(3-hydroxy-5-methyl-phenyl)-bicyclo[4.1.0] heptan-2-ol] the inhibition in vivo at 5 mg/kg (rat; IV in 20% HP-β-CD) was no less than 50%.

For `CN(C)C[C@H]1[C@H]2CC[C@H](C2)C[C@]1(O)c1cccc(O)c1` [(+)-Enantioisomers, (+)-(1S,2R,3R,5R)-2-((dimethylamino)methyl)-3-(3-hydroxyphenyl)bicyclo[3.2.1]octan-3-ol], the “biological activity in bioassay(s)” value (Unspecified bioassay(s)) was “better biological activity than (−)-enantioisomer”.

`COc1ccc(F)c([C@@]2(O)C[C@H]3CC[C@H](C3)[C@@H]2CN(C)C)c1` [Example 17, 2-Dimethylamino-methyl-3-(2-fluoro-5-methoxy-phenyl)-bicyclo[3.2.1]octan-3-ol hydrochloride] gave an inhibition in vivo at 5 mg/kg (rat; IV in 20% HP-β-CD) of no less than 50%.

In the case of `CN(C)C[C@H]1C2CC[C@@H](C2)C[C@]1(O)c1cc(OC(=O)C(C)(C)C)ccc1F` [Example 65, 2,2-dimethyl-propionic acid 3-(2-dimethylaminomethyl-3-hydroxy-bicycle[3.2.1]oct-3-yl)-4-fluoro-phenyl ester], the inhibition in vivo at 20 mg/kg (rat; [1]) is reported as no less than 50%.

Work on `CN(C)C[C@@H]1C(c2cc(F)cc(OC(=O)C(C)(C)C)c2)=C[C@H]2CC[C@@H]1C2` [Example 107, 2,2-Dimethyl-propionic-acid 3-(4-dimethyl-aminomethyl-bicyclo[3.2.1]oct-2-en-3-yl)-5-fluoro-phenyl ester] yielded an inhibition in vivo at 5 mg/kg (rat; IV in 20% HP-β-CD) of no less than 50%.

Work on `COc1cccc(C2(O)CCCCC2CN(C)C)c1` (centres unmarked) [Tramadol, reference compound] yielded an inhibition in vivo at 20 mg/kg (rat; IV in 20% HP-β-CD) of no less than 50% and an inhibition in vivo at 30 mg/kg (rat; [1]) of no less than 50%.

— patent publication US8802728B2, “Analgesic compounds, methods, and formulations” (Eli Lilly and Company, priority 2011, dated 2014)
